According to patent US20230066946A1, “1,5-DIPHENYLPYRAZOLYL-3-OXYALKYL ACIDS AND 1-PHENYL-5-THIENYLPYRAZOLYL-3-OXYALKYL ACIDS AND THE USE THEREOF FOR CONTROL OF UNWANTED PLANT GROWTH” (Bayer Aktiengesellschaft, priority 2019, published 2023):

Legend:
[1] = system: AMARE; assay: Pre-emergence herbicidal action against AMARE; type: in vivo, Amaranthus retroflexus; conditions: scored visually after about 3 weeks vs untreated controls; for Pre-emergence action at 320 g/ha against AMARE in %: 100% = plants have died, 0% = like control plants; for Pre-emergence action against AMARE in %: 1280 g/ha
Method in brief: (§1)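 Pre-emergence, sandy loam, pots doubly sown. WP/EC formulations + 0.5% additive, 600 L/ha water, sprayed on soil surface; 1280 or 320 g/ha. Greenhouse ~3 wk; visual % effect vs untreated.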

[2] = system: AMARE; assay: Post-emergence herbicidal action against AMARE; type: in vivo, Amaranthus retroflexus; conditions: visual rating about 3 weeks after treatment
Method in brief: (§2)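 Greenhouse, sandy loam, one-leaf stage; compound as WP/EC at 1280 or 320 g/ha plus 0.5% additive (600 L/ha). Visual % activity at ~3 weeks relative to untreated plants.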

[3] = system: SETVI; assay: Post-emergence herbicidal action against SETVI; type: in vivo, Setaria viridis; conditions: 1280 g/ha, post-emergence at one-leaf stage, rated visually after about 3 weeks vs untreated controls
Method in brief: as §2

[4] = system: CYPES; assay: Pre-emergence herbicidal action against CYPES; type: in vivo, Cyperus esculentus; conditions: scored visually after about 3 weeks vs untreated controls, 100% = plants have died, 0% = like control plants
Excerpt: (§3) Seeds of mono- and dicotyledonous weed plants are placed in plastic pots in sandy loam soil (doubly sown with one species each of mono- or dicotyledonous weed plants per pot) and covered with soil. The compounds of the invention, formulated in the form of wettable powders (WP) or as emulsion concentrates (EC), are then applied onto the surface of the covering soil as aqueous suspension or emulsion with addition of 0.5% additive at a water application rate equivalent to 600 litres per hectare. After the treatment, the pots are placed in a greenhouse and kept under good growth conditions for the trial plants. After about 3 weeks, the effect of the preparations is scored visually in comparison with untreated controls as percentages. For example, 100% activity=the plants have died, 0% activity=like control plants. [table] Tables 4.1-4.15 below show the effects of selected compounds of the general formula (I) according to Tables 1 to 3 on various harmful plants at an application rate corresponding to 1280 or 320 g/ha, which have been obtained by the aforementioned experimental method.

[5] = system: STEME; assay: Pre-emergence herbicidal action against STEME; type: in vivo, Stellaria media; conditions: scored visually after about 3 weeks vs untreated controls
Method in brief: as §1

[6] = system: PHBPU; assay: Post-emergence herbicidal action against PHBPU; type: in vivo, Pharbitis purpurea; conditions: 320 g/ha, visual rating about 3 weeks after treatment
Method in brief: as §2

[7] = system: STEME; assay: Post-emergence herbicidal action against STEME; type: in vivo, Stellaria media; conditions: visual rating about 3 weeks after treatment
Method in brief: as §2

[8] = system: MATIN; assay: Post-emergence herbicidal action against MATIN; type: in vivo, Matricaria inodora; conditions: visual rating about 3 weeks after treatment
Method in brief: as §2

[9] = system: ALOMY; assay: Post-emergence herbicidal action against ALOMY; type: in vivo, Alopecurus myosuroides; conditions: 1280 g/ha, post-emergence at one-leaf stage, rated visually after about 3 weeks vs untreated controls
Method: (§4) [table] Seeds of mono- and dicotyledonous weed plants are placed in plastic pots in sandy loam soil (twin sowing with one species each of mono- or dicotyledonous weed plants per pot), covered with soil and cultivated in a greenhouse under controlled growth conditions. 2 to 3 weeks after sowing, the test plants are treated at the one-leaf stage. The compounds of the invention, formulated in the form of wettable powders (WP) or as emulsion concentrates (EC), are applied to the green parts of the plants as aqueous suspension or emulsion with addition of 0.5% additive at a water application rate equivalent to 600 litres per hectare. After the test plants have been kept in the greenhouse under optimum growth conditions for about 3 weeks, the activity of the preparations is rated visually in comparison to untreated controls. For example, 100% activity=the plants have died, 0% activity=like control plants. Tables 5.1-5.16 below show the effects of selected compounds of the general formula (I) according to Tables 1 to 3 on various harmful plants at an application rate corresponding to 1280 or 320 g/ha, which have been obtained by the aforementioned experimental method.

[10] = system: harmful plants; assay: Post-emergence herbicidal action, summary of Tables 5.1-5.16; type: in vivo; conditions: result in words
Method: as §4, with “Seeds” for “[table] Seeds”, “method. As the results from Tables 5.1-5.16 show, compounds of the invention have good herbicidal post-emergence efficacy against a broad spectrum of weed grasses and weeds. […] For example, compounds Nos. I-002, I-006, I-022, I-056 and I-072 applied by the post-emergence method have very good herbicidal action (80% to 100% herbicidal action) against harmful plants such as Alopecurus myosuroides, Amaranthus retroflexus, Matricaria inodora, Setaria viridis, Pharbitis purpurea and Stellaria media at an application rate of 1.28 kg of active substance or less per hectare.” for “method.”

[11] = system: VERPE; assay: Pre-emergence herbicidal action against VERPE; type: in vivo, Veronica persica; conditions: 320 g/ha, scored visually after about 3 weeks vs untreated controls
Method in brief: as §1

[12] = system: harmful plants; assay: Pre-emergence herbicidal action, summary of Tables 4.1-4.15; type: in vivo; conditions: result in words
Excerpt: as §3, with “plants.” for “plants. [table] Tables 4.1-4.15 below show the effects of selected compounds of the general formula (I) according to Tables 1 to 3 on various harmful plants at an application rate corresponding to 1280 or 320 g/ha, which have been obtained by the aforementioned experimental method.”
Tables 4.1-4.15 below show the effects of selected compounds of the general formula (I) according to Tables 1 to 3 on various harmful plants at an application rate corresponding to 1280 or 320 g/ha, which have been obtained by the aforementioned experimental method.
For example, compounds no. I-008, I-056, I-057, I-061, I-067, I-070 and I-072 applied by the pre-emergence method have very good action (80% to 100% herbicidal action) against harmful plants such as Alopecurus myosuroides, Amaranthus retroflexus, Matricaria inodora, Polygonum convolvulus, Setaria viridis and Stellaria media at an application rate of 1.28 kg of active substance or less per hectare.

[13] = system: ECHCG; assay: Post-emergence herbicidal action against ECHCG; type: in vivo, Echinochloa crus-galli; conditions: 1280 g/ha, post-emergence at one-leaf stage, rated visually after about 3 weeks vs untreated controls
Method in brief: as §2

[14] = system: VIOTR; assay: Pre-emergence herbicidal action against VIOTR; type: in vivo, Viola tricolor; conditions: 1280 g/ha, scored visually after about 3 weeks vs untreated controls
Excerpt: as §3

[15] = system: MATIN; assay: Pre-emergence herbicidal action against MATIN; type: in vivo, Matricaria inodora; conditions: 1280 g/ha, scored visually after about 3 weeks vs untreated controls
Method in brief: as §1

[16] = system: AVEFA; assay: Post-emergence herbicidal action against AVEFA; type: in vivo, Avena fatua; conditions: 1280 g/ha, post-emergence at one-leaf stage, rated visually after about 3 weeks vs untreated controls
Method: as §4

[17] = system: VIOTR; assay: Post-emergence herbicidal action against VIOTR; type: in vivo, Viola tricolor; conditions: 320 g/ha, visual rating about 3 weeks after treatment
Method in brief: as §2

[18] = system: VERPE; assay: Post-emergence herbicidal action against VERPE; type: in vivo, Veronica persica; conditions: 320 g/ha, visual rating about 3 weeks after treatment
Method in brief: as §2

[19] = system: SETVI; assay: Pre-emergence herbicidal action against SETVI; type: in vivo, Setaria viridis; conditions: 1280 g/ha, scored visually after about 3 weeks vs untreated controls
Method in brief: as §1

[20] = system: ALOMY; assay: Pre-emergence herbicidal action against ALOMY; type: in vivo, Alopecurus myosuroides; conditions: scored visually after about 3 weeks vs untreated controls, 100% = plants have died, 0% = like control plants
Excerpt: as §3

Row | SMILES | Pre-emergence action at 320 g/ha against AMARE in % [1] [%] | Pre-emergence action against AMARE in % [1] [%] | Post-emergence action against AMARE in % ([2]; 1280 g/ha) [%] | Post-emergence action against SETVI in % [3] [%] | Pre-emergence action at 1280 g/ha against CYPES in % [4] [%] | Pre-emergence action against STEME in % ([5]; 1280 g/ha) [%] | Post-emergence action against PHBPU in % [6] [%] | Post-emergence action against STEME in % ([7]; 1280 g/ha) [%] | Post-emergence action against MATIN in % ([8]; 1280 g/ha) [%] | Post-emergence action against ALOMY in % [9] [%] | herbicidal efficacy against harmful plants when applied post-emergence [10] | Post-emergence action against AMARE in % ([2]; 320 g/ha) [%] | Pre-emergence action against VERPE in % [11] [%] | Post-emergence action against STEME in % ([7]; 320 g/ha) [%] | herbicidal efficacy against harmful plants in the case of pre-emergence treatment [12] | Post-emergence action against ECHCG in % [13] [%] | Pre-emergence action against MATIN in % [15] [%] | Post-emergence action against AVEFA in % [16] [%] | Post-emergence action against VIOTR in % [17] [%] | Post-emergence action against VERPE in % [18] [%] | further results
1 | COC(=O)COc1nn(-c2ccc(F)cc2)c(-c2ccc(F)cc2)c1Cl [I-006] | 80 | 100 | 100 | 90 | 100 | 100 | 80 | 80 | 80 | 80 | very good herbicidal efficacy |  |  |  |  |  |  |  |  |  | 
2 | COC(=O)COc1nn(-c2ccccc2)c(-c2cccc(F)c2)c1C#N [I-021] | 100 | 100 | 80 |  | 100 | 90 | 80 | 80 | 80 | 80 | very good herbicidal efficacy | 80 | 90 | 80 | good herbicidal efficacy | 80 | 90 |  |  |  | Pre-emergence action against VIOTR in % [14]: 90%
3 | COC(=O)COc1nn(-c2ccc(F)cc2)c(-c2ccc(F)c(F)c2)c1C#N [I-036] |  | 80 |  |  |  |  | 80 | 80 | 80 |  |  |  |  | 80 |  |  |  | 80 | 80 | 80 | Pre-emergence action against SETVI in % [19]: 80%; Post-emergence action against MATIN in % ([8]; 320 g/ha): 80%
4 | COC(=O)COc1nn(-c2ccccc2)c(-c2cccc(F)c2)c1Cl [I-002] | 100 | 100 | 90 | 80 |  | 100 | 80 | 90 | 80 | 80 | very good herbicidal efficacy | 80 | 100 | 80 | good herbicidal efficacy | 80 | 100 |  |  | 80 | Pre-emergence action against STEME in % ([5]; 320 g/ha): 80%; Pre-emergence action at 1280 g/ha against ALOMY in % [20]: 80%
5 | COC(=O)COc1nn(-c2ccc(F)cc2)c(-c2ccc(F)c(F)c2)c1Cl [I-025] | 90 | 90 | 80 |  |  |  |  |  | 80 |  |  | 80 | 80 |  |  |  |  | 80 | 80 | 80 | Pre-emergence action against SETVI in % [19]: 80%
6 | COC(=O)COc1nn(-c2ccc(F)cc2)c(-c2ccc(F)cc2)c1C#N [I-009] |  |  | 80 | 80 |  |  |  |  |  |  |  |  |  |  |  |  |  | 80 |  |  | 
